Data on two compounds can be found in patent US20100323990A1, “SHIP 1 MODULATOR PRODRUGS” (THE UNIVERSITY OF BRITISH COLUMBIA, priority 2006, published 2010).

One data set concerns plasma TNFα. Briefly: Mouse endotoxemia model (Assay 6), plasma TNFα by ELISA. The note with it: for Assay 6: Mouse endotoxemia model, desired activity: oral, 30 min prior to IP 2 mg/kg LPS, plasma TNFα 2 hrs later. It is filed as in vivo, mice. The procedure: Assay 1) In vitro testing in a SHIP enzyme assay. Test compounds were dissolved in a suitable solvent (e.g. EtOH, DMSO and others) and diluted into aqueous buffer (20 mM Tris HCl, pH 7.5 and 10 mM MgCl2). SHIP enzyme assays were performed in 96-well microtitre plates with 10 ng of enzyme/well in a total volume of 25 μL of 20 mM Tris HCl, pH 7.5 and 10 mM MgCl2. SHIP enzyme was incubated with test extracts (provided in solvent) or vehicle for 15 min at 23° C. before the addition of 100 μM inositol-1,3,4,5-tetrakisphosphate (Echelon Biosciences Inc, Salt Lake City, Utah). After 20 min at 37° C. and the amount of inorganic phosphate released assessed by the addition of Malachite Green reagent and absorbance measurement at 650 nm. Assay 2) Macrophage TNF-α production. J774.1a macrophage cells were treated with 10 μg/mL of test compound dissolved in solvent (e.g. cyclodextran) for 40 minutes prior to the addition of 100 ng/mL LPS. Culture supernatants were collected after 2 hr and 5 hr for TNF-α determination by ELISA. Assay 3) Macrophage TNF-α NO assay. J774.1a macrophage cells were treated with 10 μg/ml of test compound dissolved in solvent for 40 minutes prior to the addition of LPS. Culture supernatants were collected after 24 hr. for determination of NO concentration using the Griess reagent. Assay 4) Stimulation of mast cells by FcεRI crosslinking. Mast cells were pre-loaded overnight in BMMC medium lacking IL-3 with 0.1 μg/ml anti-DNP IgE (SPE-7, Sigma, Oakville, Ont). For calcium flux measurements, cells were incubated with 2 μM fura 2-acetoxymethyl ester (Molecular Probes, Eugene, Oreg.) in Tyrode's buffer at 23° C. for 45 min. Cells were then washed and incubated in the presence of the test compound 30 min prior to stimulation with the indicated concentration of DNP-human serum albumin (DNP-HSA). Calcium influx was monitored by spectrofluorometry as described previously. For analysis of intracellular signaling, cells were pre-loaded with anti-DNP IgE as above, pre-treated with the test compound for 30 min at 37° C. and stimulated with 20 ng/ml DNP-HSA for 5 min. Total cell lysates were then prepared and analyzed for phospho-PKB, phospho-p38^MAPK, phospho-MAPK, Grb-2 (Cell Signalling, Mississauga, Ont) and SHIP^6 by immunoblot analysis. Assay 5) Mouse acute cutaneous anaphylaxis model. 6-8 week old CD1 mice (University of British Columbia Animal Facility, Vancouver, BC) were sensitized to the hapten DNP by cutaneous application of 25 μL of 0.5% dinitrofluorobenzene (DNFB) (Sigma, Oakville, Ont) in acetone to the shaved abdomen of mice for two consecutive days. 24 hrs later, test substances (dissolved in 10 μL of 1:2 DMSO:MeOH) were painted on the right ear while the left ear received vehicle control. 30 min after drug application, DNFB was applied to both ears to induce mast cell degranulation. A 6 mm punch was taken from the ear and immediately frozen on dry ice for subsequent determination of neutrophil myeloperoxidase (MPO) activity. Assay 6) Mouse endotoxemia model. […] The ability of SHIP activators to reduce tumor cell survival was assessed in MM cell lines treated with the test compound. The lines OPM1, OPM2, MM.1S and RPMI 8226 were plated at a density of 1×10^5 cells/mL in 200 μL of medium with various concentrations of the test compound, and viable cell numbers were determined on day 3 and day 5 by trypan blue exclusion. […]
(In an ELISA, binding on a coated surface is turned into a signal by an enzyme label.)

Another data set deals with LNCaP cells. Briefly: PKB activation in LNCaP cells, which do not express SHIP. Format: cell-based, human. To be noted: AQX-016A at doses up to 60 μM. As to the method: The ability of AQX-016A to inhibit activation of PIP3-dependent downstream signalling proteins in SHIP^+/+ vs SHIP^−/− was assessed. LPS stimulation of macrophages results in PKB phosphorylation. […] Similar protein loading was confirmed by reblotting with either antibodies to PKB or Grb2. […] Thus, AQX-016A inhibits PIP3-regulated intracellular signal transduction events in SHIP expressing hematopoietic cells, but not in SHIP-deficient hematopoietic or non-hematopoietic cells.

A further data set concerns J774.1a macrophage cells. Briefly: Macrophage TNF-α production (Assay 2). Also: key: a ‘+’ indicates a positive result for desired activity; a ‘−’ indicates a negative result for desired activity. It is filed as cell-based. The note with it: 10 μg/mL test compound, 100 ng/mL LPS, supernatants after 2 hr and 5 hr. The method, boiled down: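 J774.1a macrophages pretreated 40 min with 10 μg/mL compound, then LPS (100 ng/mL for TNF-α); TNF-α by ELISA in supernatants at 2 and 5 h, NO by Griess at 24 h. Mast cells IgE-loaded (anti-DNP), compound 30 min, DNP-HSA challenge; calcium flux by fura-2 spectrofluorometry, signalling by immunoblot.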

Data set [1] in a line: Initial toxicology studies. Format: in vivo. To be noted: data not shown. The source says: A novel paradigm for inhibiting PI3K signaling through activation of the phosphatases that negatively regulate this pathway is provided. SHIP is a particularly good target for immune/hematopoietic disorders because of its restricted expression to hematopoietic cells. Because the relative activity of phosphatases present in a cell will influence the efficacy of kinase inhibitors, as discussed by Knight and Shokat, SHIP agonists may also be used to potentiate the activation of PI3K inhibitors and promote tissue targeting of PI3K inhibitors to the ematopoietic/immune cell compartment.

A further data set deals with MM cell lines. The experiment in a line: In vitro Multiple Myeloma (MM) assay (Assay 7). As to Assay 7: In vitro Multiple Myeloma (MM) assay, desired activity: key: a ‘+’ indicates a positive result for desired activity; a ‘−’ indicates a negative result for desired activity. Format: cell-based. The note with it: for Assay 7: In vitro Multiple Myeloma (MM) assay, desired activity: viable cell number by trypan blue, [3H]-thymidine. The procedure: (§1) Assay 1) In vitro testing in a SHIP enzyme assay. Test compounds were dissolved in a suitable solvent (e.g. EtOH, DMSO and others) and diluted into aqueous buffer (20 mM Tris HCl, pH 7.5 and 10 mM MgCl2). SHIP enzyme assays were performed in 96-well microtitre plates with 10 ng of enzyme/well in a total volume of 25 μL of 20 mM Tris HCl, pH 7.5 and 10 mM MgCl2. SHIP enzyme was incubated with test extracts (provided in solvent) or vehicle for 15 min at 23° C. before the addition of 100 μM inositol-1,3,4,5-tetrakisphosphate (Echelon Biosciences Inc, Salt Lake City, Utah). After 20 min at 37° C. and the amount of inorganic phosphate released assessed by the addition of Malachite Green reagent and absorbance measurement at 650 nm. Assay 2) Macrophage TNF-α production. J774.1a macrophage cells were treated with 10 μg/mL of test compound dissolved in solvent (e.g. cyclodextran) for 40 minutes prior to the addition of 100 ng/mL LPS. Culture supernatants were collected after 2 hr and 5 hr for TNF-α determination by ELISA. Assay 3) Macrophage TNF-α NO assay. J774.1a macrophage cells were treated with 10 μg/ml of test compound dissolved in solvent for 40 minutes prior to the addition of LPS. Culture supernatants were collected after 24 hr. for determination of NO concentration using the Griess reagent. Assay 4) Stimulation of mast cells by FcεRI crosslinking. Mast cells were pre-loaded overnight in BMMC medium lacking IL-3 with 0.1 μg/ml anti-DNP IgE (SPE-7, Sigma, Oakville, Ont). For calcium flux measurements, cells were incubated with 2 μM fura 2-acetoxymethyl ester (Molecular Probes, Eugene, Oreg.) in Tyrode's buffer at 23° C. for 45 min. Cells were then washed and incubated in the presence of the test compound 30 min prior to stimulation with the indicated concentration of DNP-human serum albumin (DNP-HSA). Calcium influx was monitored by spectrofluorometry as described previously. For analysis of intracellular signaling, cells were pre-loaded with anti-DNP IgE as above, pre-treated with the test compound for 30 min at 37° C. and stimulated with 20 ng/ml DNP-HSA for 5 min. Total cell lysates were then prepared and analyzed for phospho-PKB, phospho-p38^MAPK, phospho-MAPK, Grb-2 (Cell Signalling, Mississauga, Ont) and SHIP^6 by immunoblot analysis. Assay 5) Mouse acute cutaneous anaphylaxis model. 6-8 week old CD1 mice (University of British Columbia Animal Facility, Vancouver, BC) were sensitized to the hapten DNP by cutaneous application of 25 μL of 0.5% dinitrofluorobenzene (DNFB) (Sigma, Oakville, Ont) in acetone to the shaved abdomen of mice for two consecutive days. 24 hrs later, test substances (dissolved in 10 μL of 1:2 DMSO:MeOH) were painted on the right ear while the left ear received vehicle control. 30 min after drug application, DNFB was applied to both ears to induce mast cell degranulation. A 6 mm punch was taken from the ear and immediately frozen on dry ice for subsequent determination of neutrophil myeloperoxidase (MPO) activity. Assay 6) Mouse endotoxemia model. 6-8 week old C57B16 mice (VCHRI Mammalian Model of Human Disease Core Facility, Vancouver, BC) were orally administered the test compound 30 min prior to an IP injection of 2 mg/kg of LPS (E. Coli serotype 0111:B4, Sigma, Oakville, Ont). Blood was drawn 2 hrs later for determination of plasma TNFα by ELISA. Assay 7) In vitro Mulitple Myeloma (MM) assay. The ability of SHIP activators to reduce tumor cell survival was assessed in MM cell lines treated with the test compound. The lines OPM1, OPM2, MM.1S and RPMI 8226 were plated at a density of 1×10^5 cells/mL in 200 μL of medium with various concentrations of the test compound, and viable cell numbers were determined on day 3 and day 5 by trypan blue exclusion. The lines RPMI 8226 and U266 were plated at a density of 1×10^6 cells/mL in 250 μL of medium with various concentrations of the test compound. At day 4, the medium of each culture was replaced by fresh medium containing the same concentration of test compound. […]

Another data set relates to SHIP enzyme. The experiment in a line: In vitro SHIP enzyme assay (Assay 1), phosphate release by Malachite Green. As to Assay 1: SHIP enzyme assay, desired activity: key: a ‘+’ indicates a positive result for desired activity; a ‘−’ indicates a negative result for desired activity. Format: biochemical. As to the method:
as §1

For the compound `Cc1cc(O)c(O)c2c1[C@]1(C)CCC3C(C)(C)CCC[C@]3(C)[C@H]1C2` (stereo partly drawn) [AQX-016A], in the data set on plasma TNFα, the “Assay 6: Mouse endotoxemia model, desired activity” value was “+”. For the same compound, the “PKB phosphorylation in LNCaP cells” value in the data set on LNCaP cells is given as “no effect”. In addition, in the data set with J774.1a macrophage cells, the “Assay 2: Macrophage TNF-α production, desired activity” value is listed as “+”. In data set [1], the “peripheral blood cell counts and bone marrow progenitor numbers” value is “do not significantly affect”; the tolerability result was “well tolerated”. Moreover, the “Assay 7: In vitro Multiple Myeloma (MM) assay, desired activity” value in the data set on MM cell lines is “+”.
Turning to `Cc1cc(O)cc2c1[C@]1(C)CCC3C(C)(C)CCC[C@]3(C)[C@H]1C2` (stereo partly drawn) [Compound 100], the “LPS-induced plasma/serum TNFα levels” value in the data set on plasma TNFα (oral administration 30 min prior to LPS) is given as “efficiently inhibited”. Besides, in the data set on plasma TNFα, the “Assay 6: Mouse endotoxemia model, desired activity” value is reported as “+”. The “Assay 2: Macrophage TNF-α production, desired activity” value in the data set with J774.1a macrophage cells is reported as “+”. Further, the “SHIP enzyme activity in vitro” value with SHIP enzyme is given as “enhanced SHIP enzyme activity in vitro”. Also, the “Assay 1: SHIP enzyme assay, desired activity” value in the data set on SHIP enzyme (10 ng enzyme/well, 100 μM inositol-1,3,4,5-tetrakisphosphate) is listed as “+”. Moreover, in data set [1], the “peripheral blood cell counts and bone marrow progenitor numbers” value is listed as “do not significantly affect”; the tolerability result is “well tolerated”. The “MM proliferation / tumor cell survival, comparison” value with MM cell lines (OPM1, OPM2, MM.1S, RPMI 8226, U266, trypan blue) is “inhibits MM proliferation at lower concentrations than AQX-016A”. The “Assay 7: In vitro Multiple Myeloma (MM) assay, desired activity” value in the data set on MM cell lines was “+”.
